This note sets out measurements from ChEMBL document CHEMBL1131835, “Synthesis and biological evaluation of conformationally restricted Gabapentin analogues” (Bioorg Med Chem Lett, 1999).

SMILES strings stand for the structures.

This assay in a line: Displacement of [3H]gabapentin from alpha2-delta subunit of calcium channel. Background: In a radioligand displacement assay an active substance lowers the binding of a labelled ligand.
Regarding `O=C(O)C[C@]12CCCC[C@H]1NC2`, the IC50 was above 10 µM.

As to `O=C(O)C[C@]12CCCC[C@H]1CNC2`, the IC50 was above 10 µM.

On to `O=C(O)C1CCNCC12CCCCC2` (configuration not stated), for which the IC50 was above 10 µM.

Regarding `O=C(O)C1NCC12CCCCC2` (configuration not stated), the IC50 came to 1.5 µM.

On to `O=C(O)[C@H]1CNCC12CCCCC2`, for which the half-inhibitory concentration (IC50) amounted to 0.12 µM.

In the case of `O=C(O)[C@@H]1CNCC12CCCCC2`, the IC50 is above 10 µM.

For the molecule `NCC1(CC(=O)O)CCCCC1` [GABAPENTIN], the IC50 was […].

The term IC50 denotes the concentration that gives 50% inhibition.
